Read-outs that look alike come from different tables or passages of the source.
Tests used:
Type in all cases: in vivo
Kochia (Kochia scoparia) [1] = assay: Test A preemergence; conditions: Bassia scoparia, pre-emergence, 240 h; for pest or weed control at 125 g/ha: 125 g ai/ha; for pest or weed control at 500 g/ha: 500 g ai/ha
Method in brief: (§1)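 In a loam soil and sand blend, planted seeds got a preemergence directed soil spray, and young plants at the one- to two-leaf stage, 2–10 cm high, got a postemergence application; ~10 d greenhouse hold; injury rated visually, 0 = none, 100 = complete control.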

[2] = tested on: barnyardgrass (Echinochloa crus-galli); assay: Test A preemergence; conditions: Echinochloa crus-galli, pre-emergence, 240 h; for pest or weed control at 125 g/ha: 125 g ai/ha; for pest or weed control at 500 g/ha: 500 g ai/ha
Method in brief: as §1

[3] = tested on: giant foxtail (Setaria faberii); assay: Test A preemergence; conditions: Setaria faberi, pre-emergence, 240 h; for pest or weed control at 125 g/ha: 125 g ai/ha; for pest or weed control at 500 g/ha: 500 g ai/ha
Method in brief: as §1

[4] = tested on: pigweed (Amaranthus retroflexus); assay: Test A preemergence; conditions: Amaranthus retroflexus, pre-emergence, 240 h; for pest or weed control at 125 g/ha: 125 g ai/ha; for pest or weed control at 500 g/ha: 500 g ai/ha
[5] = tested on: ragweed (common ragweed, Ambrosia elatior); assay: Test A preemergence; conditions: Ambrosia artemisiifolia, pre-emergence, 240 h; for pest or weed control at 125 g/ha: 125 g ai/ha; for pest or weed control at 500 g/ha: 500 g ai/ha
Method in brief: as §1

[6] = tested on: ryegrass, Italian (Italian ryegrass, Lolium multiflorum); assay: Test A preemergence; conditions: Lolium multiflorum, pre-emergence, 240 h; for pest or weed control at 125 g/ha: 125 g ai/ha; for pest or weed control at 500 g/ha: 500 g ai/ha
Method in brief: as §1

Kochia (Kochia scoparia) [7] = assay: Test A postemergence; conditions: Bassia scoparia, post-emergence, 240 h, postemergence
Method in brief: as §1

[8] = tested on: blackgrass (Alopecurus myosuroides); assay: Test A postemergence; conditions: Alopecurus myosuroides, post-emergence, 240 h; for pest or weed control at 125 g/ha: 125 g ai/ha, read-out: Blackgrass plant response rating (0 to 100 scale); for pest or weed control at 500 g/ha: 500 g ai/ha
Method in brief: as §1

[9] = tested on: giant foxtail (Setaria faberii); assay: Test A postemergence; conditions: Setaria faberi, post-emergence, 240 h; for pest or weed control at 125 g/ha: 125 g ai/ha, read-out: Foxtail, Giant plant response rating (0 to 100 scale); for pest or weed control at 500 g/ha: 500 g ai/ha
Method in brief: as §1

[10] = tested on: ragweed (common ragweed, Ambrosia elatior); assay: Test A postemergence; conditions: Ambrosia artemisiifolia, post-emergence, 240 h; for pest or weed control at 125 g/ha: 125 g ai/ha, read-out: Ragweed plant response rating (0 to 100 scale); for pest or weed control at 500 g/ha: 500 g ai/ha
Method in brief: as §1

[11] = tested on: barnyardgrass (Echinochloa crus-galli); assay: Test B flooded paddy test; conditions: Echinochloa crus-galli, 250 g ai/ha, Flood
Method in brief: (§2)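 Flooding to 3 cm over soil accompanied treatment, which consisted of adding compound to the standing water around 2-leaf plants; depth was then maintained. Visual assessment versus controls followed at 13 to 15 d (scale 0–100, 0 meaning no effect).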

[12] = tested on: ducksalad (Heteranthera limosa); assay: Test B flooded paddy test; conditions: Heteranthera limosa, 250 g ai/ha, Flood
Method in brief: as §2

rice (Oryra sativa) = assay: Test B flooded paddy test; conditions: Oryza sativa, 250 g ai/ha, Flood
Method in brief: as §2

[13] = tested on: sedge, umbrella (small-flower umbrella sedge, Cyperus difformis); assay: Test B flooded paddy test; conditions: Cyperus difformis, 250 g ai/ha, Flood
Method in brief: as §2

[14] = tested on: barnyardgrass (Echinochloa crus-galli); assay: Test A postemergence; conditions: Echinochloa crus-galli, post-emergence, 240 h, Postemergence
Method in brief: as §1

[15] = postemergence, visual injury vs untreated controls after approx. 10 d, 0 = no effect, 100 = complete control
[16] = Postemergence, visual rating about 10 d after treatment

Work on `COc1cc(C(F)(F)F)ccc1[C@H]1CNC(=O)[C@@H]1C(=O)Nc1cccc(F)c1F` [Compound 1203] yielded a pest or weed control at 125 g/ha (Kochia (Kochia scoparia) [1]; preemergence, visual injury rating, 0 to 100 scale where 0 is no effect and 100 is complete control, approximately 10 d, read-out: Kochia plant response rating) of 20%, a pest or weed control at 500 g/ha (Kochia (Kochia scoparia) [1]; preemergence, 0 to 100 scale where 0 is no effect and 100 is complete control, read-out: Kochia plant response rating) of 50% and a pest or weed control at 125 g/ha ([2]; preemergence, visual injury rating, 0 to 100 scale where 0 is no effect and 100 is complete control, approximately 10 d, read-out: Barnyardgrass plant response rating) of 80%. For the same molecule, the pest or weed control at 500 g/ha ([2]; preemergence, 0 to 100 scale where 0 is no effect and 100 is complete control, read-out: Barnyardgrass plant response rating) was 90%, the pest or weed control at 125 g/ha ([3]; preemergence, visual injury rating, 0 to 100 scale where 0 is no effect and 100 is complete control, approximately 10 d, read-out: Foxtail, Giant plant response rating) was 80% and the pest or weed control at 500 g/ha ([3]; preemergence, 0 to 100 scale where 0 is no effect and 100 is complete control, read-out: Foxtail, Giant plant response rating) was 90%. The pest or weed control at 125 g/ha ([4]; preemergence, visual injury rating, 0 to 100 scale where 0 is no effect and 100 is complete control, approximately 10 d, read-out: Pigweed plant response rating) was 0%, the pest or weed control at 500 g/ha ([4]; preemergence, 0 to 100 scale where 0 is no effect and 100 is complete control, read-out: Pigweed plant response rating) was 20% and the pest or weed control at 125 g/ha ([5]; preemergence, visual injury rating, 0 to 100 scale where 0 is no effect and 100 is complete control, approximately 10 d, read-out: Ragweed plant response rating) was 30%. For the same molecule, the pest or weed control at 500 g/ha ([5]; preemergence, 0 to 100 scale where 0 is no effect and 100 is complete control, read-out: Ragweed plant response rating) was 80%, the pest or weed control at 125 g/ha ([6]; preemergence, visual injury rating, 0 to 100 scale where 0 is no effect and 100 is complete control, approximately 10 d, read-out: Ryegrass, Italian plant response rating) was 0% and the pest or weed control at 500 g/ha ([6]; preemergence, 0 to 100 scale where 0 is no effect and 100 is complete control, read-out: Ryegrass, Italian plant response rating) was 20%. The pest or weed control at 125 g/ha (Kochia (Kochia scoparia) [7]; 125 g ai/ha, visual injury vs untreated controls after approx. 10 d, 0 = no effect, 100 = complete control, read-out: Kochia plant response rating (0 to 100 scale)) was 40%, the pest or weed control at 500 g/ha (Kochia (Kochia scoparia) [7]; 500 g ai/ha, 0 to 100 scale, 0 is no effect, 100 is complete control, read-out: Kochia plant response rating) was 60% and the pest or weed control at 125 g/ha [8, 15] was 20%. It also gave a pest or weed control at 500 g/ha ([8]; postemergence, 0 to 100 scale, 0 is no effect, 100 is complete control, read-out: Blackgrass plant response rating) of 60%, a pest or weed control at 125 g/ha [9, 15] of 90% and a pest or weed control at 500 g/ha ([9]; postemergence, 0 to 100 scale, 0 is no effect, 100 is complete control, read-out: Foxtail, Giant plant response rating) of 90%. It also gave a pest or weed control at 125 g/ha [10, 15] of 20%, a pest or weed control at 500 g/ha ([10]; postemergence, 0 to 100 scale, 0 is no effect, 100 is complete control, read-out: Ragweed plant response rating) of 30% and a pest or weed control at 250 g/ha ([11]; 0 to 100 scale where 0 is no effect and 100 is complete control, read-out: Barnyardgrass plant response rating) of 30%. The pest or weed control at 250 g/ha ([12]; 0 to 100 scale where 0 is no effect and 100 is complete control, read-out: Ducksalad plant response rating) was 100%, the pest or weed control at 250 g/ha (rice (Oryra sativa); 0 to 100 scale where 0 is no effect and 100 is complete control, read-out: Rice plant response rating) was 0% and the pest or weed control at 250 g/ha ([13]; 0 to 100 scale where 0 is no effect and 100 is complete control, read-out: Sedge, Umbrella plant response rating) was 0%.
For `CN1C[C@H](c2ccc(C(F)(F)F)cc2)[C@@H](C(=O)Nc2cccc(C#N)c2F)C1=O` [Compound 1381], the pest or weed control at 500 g/ha (Kochia (Kochia scoparia) [1]; preemergence, 0 to 100 scale (0 no effect, 100 complete control), read-out: Plant response rating, Kochia) was 80%, the pest or weed control at 125 g/ha (Kochia (Kochia scoparia) [1]; Preemergence, 0 to 100 scale (0 no effect, 100 complete control), read-out: Plant response rating, Kochia) was 80% and the pest or weed control at 500 g/ha ([2]; preemergence, 0 to 100 scale (0 no effect, 100 complete control), read-out: Plant response rating, Barnyardgrass) was 100%. The pest or weed control at 125 g/ha ([2]; Preemergence, 0 to 100 scale (0 no effect, 100 complete control), read-out: Plant response rating, Barnyardgrass) was 90%, the pest or weed control at 500 g/ha ([3]; preemergence, 0 to 100 scale (0 no effect, 100 complete control), read-out: Plant response rating, Foxtail, Giant) was 100% and the pest or weed control at 125 g/ha ([3]; Preemergence, 0 to 100 scale (0 no effect, 100 complete control), read-out: Plant response rating, Foxtail, Giant) was 100%. The pest or weed control at 500 g/ha ([4]; preemergence, 0 to 100 scale (0 no effect, 100 complete control), read-out: Plant response rating, Pigweed) was 100%, the pest or weed control at 125 g/ha ([4]; Preemergence, 0 to 100 scale (0 no effect, 100 complete control), read-out: Plant response rating, Pigweed) was 90% and the pest or weed control at 500 g/ha ([5]; preemergence, 0 to 100 scale (0 no effect, 100 complete control), read-out: Plant response rating, Ragweed) was 80%. The pest or weed control at 125 g/ha ([5]; Preemergence, 0 to 100 scale (0 no effect, 100 complete control), read-out: Plant response rating, Ragweed) was 70%, the pest or weed control at 500 g/ha ([6]; preemergence, 0 to 100 scale (0 no effect, 100 complete control), read-out: Plant response rating, Ryegrass, Italian) was 50% and the pest or weed control at 125 g/ha ([6]; Preemergence, 0 to 100 scale (0 no effect, 100 complete control), read-out: Plant response rating, Ryegrass, Italian) was 30%. It also gave a pest or weed control at 125 g/ha ([14]; 125 g ai/ha, visual rating about 10 d after treatment, read-out: Barnyardgrass plant response rating (0 to 100 scale, 0 no effect, 100 complete control)) of 80%, a pest or weed control at 500 g/ha ([14]; 500 g ai/ha, visual injury, 0 to 100 scale (0 no effect, 100 complete control), approx. 10 d, read-out: Plant response rating, Barnyardgrass) of 80% and a pest or weed control at 125 g/ha [8, 16] of 40%. The pest or weed control at 500 g/ha ([8]; Postemergence, visual injury, 0 to 100 scale (0 no effect, 100 complete control), approx. 10 d, read-out: Plant response rating, Blackgrass) was 60%, the pest or weed control at 125 g/ha [9, 16] was 90% and the pest or weed control at 500 g/ha ([9]; Postemergence, visual injury, 0 to 100 scale (0 no effect, 100 complete control), approx. 10 d, read-out: Plant response rating, Foxtail, Giant) was 90%. It also gave a pest or weed control at 125 g/ha [10, 16] of 50%, a pest or weed control at 500 g/ha ([10]; Postemergence, visual injury, 0 to 100 scale (0 no effect, 100 complete control), approx. 10 d, read-out: Plant response rating, Ragweed) of 60% and a pest or weed control at 250 g/ha ([11]; 360 h, visually evaluated after 13 to 15 d, read-out: Plant response rating, Barnyardgrass (0 to 100 scale where 0 is no effect and 100 is complete control)) of 65%. For the same molecule, the pest or weed control at 250 g/ha ([12]; 360 h, visually evaluated after 13 to 15 d, read-out: Plant response rating, Ducksalad (0 to 100 scale where 0 is no effect and 100 is complete control)) was 100%, the pest or weed control at 250 g/ha (rice (Oryra sativa); 360 h, visually evaluated after 13 to 15 d, read-out: Plant response rating, Rice (0 to 100 scale where 0 is no effect and 100 is complete control)) was 0% and the pest or weed control at 250 g/ha ([13]; 360 h, visually evaluated after 13 to 15 d, read-out: Plant response rating, Sedge, Umbrella (0 to 100 scale where 0 is no effect and 100 is complete control)) was 0%.

From US12077503B2, “Substituted cyclic amides and their use as herbicides” (FMC CORPORATION, priority 2015, dated 2024)
